Laboratory results as given in ChEMBL document CHEMBL3044966, “Photosynthesis limitations of grapevine after treatment with the fungicide fludioxonil” (J Agric Food Chem, 2008).

Tests used:
[1] = test system: Vitis vinifera; assay: Inhibition of photosynthesis in Vitis vinifera cv. Pinot noir assessed as mitochondrial respiration in the light at 6 mM measured 7 days post compound application (reference value: 3.2 +/- 0.5 umol/m2/s); assay type: organism-based; details: in vivo, 168 h, 6000 µM
[2] = test system: Vitis vinifera; assay: Inhibition of photosynthesis in Vitis vinifera cv. Pinot noir assessed as light compensation point at 30 mM measured 7 days post compound application (reference value: 22.6 +/- 3.1 umol/mol); assay type: organism-based; details: in vivo, 168 h, 30000 µM
[3] = test system: Vitis vinifera; assay: Inhibition of photosynthesis in Vitis vinifera cv. Pinot noir assessed as light compensation point at 1.2 mM measured 7 days post compound application (reference value: 22.6 +/- 3.1 umol/mol); assay type: organism-based; details: in vivo, 168 h, 1200 µM
[4] = test system: Vitis vinifera; assay: Inhibition of photosynthesis in Vitis vinifera cv. Pinot noir assessed as increase in mitochondrial respiration in the light at 30 mM measured 7 days post compound application relative to untreated control; assay type: organism-based; details: in vivo, 168 h, 30000 µM
[5] = test system: Vitis vinifera; assay: Inhibition of photosynthesis in Vitis vinifera cv. Pinot noir assessed as CO2 compensation point at 30 mM measured 7 days post compound application (reference value: 74.8 +/- 12.7 umol/mol); assay type: organism-based; details: in vivo, 168 h, 30000 µM
[6] = test system: Vitis vinifera; assay: Inhibition of photosynthesis in Vitis vinifera cv. Pinot noir assessed as ratio of apparent quantum yield of photo system 2 to apparent quantum yield yield of CO2 fixation at 1.2 mM measured 7 days post compound application (reference value: 10 +/- 1.7 no unit); assay type: organism-based; details: in vivo, 168 h, 1200 µM
[7] = test system: Vitis vinifera; assay: Inhibition of photosynthesis in Vitis vinifera cv. Pinot noir assessed as mitochondrial respiration in the light at 1.2 mM measured 7 days post compound application (reference value: 3.2 +/- 0.5 umol/m2/s); assay type: organism-based; details: in vivo, 168 h, 1200 µM
[8] = test system: Vitis vinifera; assay: Effect on stomatal conductance in Vitis vinifera cv. Pinot noir at 1.2 to 30 mM measured 7 days post compound application; assay type: ADME, organism-based; details: in vivo, 168 h, 30000 µM
[9] = Inhibition of photosynthesis in Vitis vinifera cv. Pinot noir assessed as reduction in Hill reaction activity 6 mM measured 7 days post compound application relative to untreated control; assay type: organism-based; details: in vivo
[10] = test system: Vitis vinifera; assay: Inhibition of photosynthesis in Vitis vinifera cv. Pinot noir assessed as PPFD-saturated net CO2 assimilation rate at 30 mM measured 7 days post compound application (reference value: 8.9 +/- 1.5 umol/m2/s); assay type: organism-based; details: in vivo, 168 h, 30000 µM
[11] = test system: Vitis vinifera; assay: Inhibition of photosynthesis in Vitis vinifera cv. Pinot noir assessed as reduction in net photosynthetic rate at 30 mM measured 1 day post compound application; assay type: organism-based; details: in vivo, 24 h, 30000 µM
[12] = Inhibition of photosynthesis in Vitis vinifera cv. Pinot noir assessed as reduction in net photosynthetic rate at 1.2 mM measured 1 day post compound application; assay type: organism-based; details: in vivo
[13] = test system: Vitis vinifera; assay: Inhibition of photosynthesis in Vitis vinifera cv. Pinot noir assessed as reduction in net photosynthetic rate at 6 mM measured 1 day post compound application; assay type: organism-based; details: in vivo, 24 h, 6000 µM
[14] = test system: Vitis vinifera; assay: Effect on maximum efficiency of PSII photochemistry after dark-adaptation in Vitis vinifera cv. Pinot noir at 1.2 to 30 mM measured 7 days post compound application; assay type: ADME, organism-based; details: in vivo, 168 h, 30000 µM
[15] = Inhibition of photosynthesis in Vitis vinifera cv. Pinot noir assessed as reduction in net photosynthetic rate at 6 mM measured 7 days post compound application; assay type: organism-based; details: in vivo
[16] = Inhibition of photosynthesis in Vitis vinifera cv. Pinot noir assessed as change in light compensation point at 6 mM measured 7 days post compound application; assay type: organism-based; details: in vivo
[17] = test system: Vitis vinifera; assay: Toxicity in Vitis vinifera cv. Pinot noir assessed as effect on gas exchanges at 1.2 to 30 mM measured 14 days post compound application; assay type: organism-based; details: in vivo, 336 h, 30000 µM
[18] = test system: Vitis vinifera; assay: Increase in […] CO2 level in Vitis vinifera cv. Pinot noir at 6 mM measured 7 days post compound application; assay type: ADME, organism-based; details: in vivo, 168 h, 6000 µM
[19] = test system: Vitis vinifera; assay: Effect on […] CO2 level in Vitis vinifera cv. Pinot noir at 1.2 to 30 mM measured 1 day post compound application; assay type: ADME, organism-based; details: in vivo, 24 h, 30000 µM
[20] = test system: Vitis vinifera; assay: Inhibition of photosynthesis in Vitis vinifera cv. Pinot noir assessed as CO2 compensation point at 1.2 mM measured 7 days post compound application (reference value: 74.8 +/- 12.7 umol/mol); assay type: organism-based; details: in vivo, 168 h, 1200 µM
[21] = Inhibition of photosynthesis in Vitis vinifera cv. Pinot noir assessed as reduction in net photosynthetic rate at 30 mM measured 7 days post compound application; assay type: organism-based; details: in vivo
[22] = Inhibition of photosynthesis in Vitis vinifera cv. Pinot noir assessed as reduction in dark respiration at 1.2 mM measured 7 days post compound application; assay type: organism-based; details: in vivo
[23] = test system: Vitis vinifera; assay: Inhibition of photosynthesis in Vitis vinifera cv. Pinot noir assessed as intercellular CO2 concentration-saturated net CO2 assimilation rate at 30 mM measured 7 days post compound application (reference value: 11.3 +/- 0.8 umol/m2/s); assay type: organism-based; details: in vivo, 168 h, 30000 µM
[24] = test system: Vitis vinifera; assay: Toxicity in Vitis vinifera cv. Pinot noir assessed as effect on gas exchanges at 1.2 to 30 mM measured 10 days post compound application; assay type: organism-based; details: in vivo, 240 h, 30000 µM
[25] = test system: Vitis vinifera; assay: Inhibition of photosynthesis in Vitis vinifera cv. Pinot noir assessed as in vivo maximum rate of rubisco carboxylation at 30 mM measured 7 days post compound application (reference value: 42.8 +/- 3.2 umol/m2/s); assay type: organism-based; details: 168 h, 30000 µM
[26] = test system: Vitis vinifera; assay: Inhibition of photosynthesis in Vitis vinifera cv. Pinot noir assessed as dark respiration at 1.2 mM measured 7 days post compound application (reference value: 1.6 +/- 0.0 umol/m2/s); assay type: organism-based; details: in vivo, 168 h, 1200 µM
[27] = Inhibition of photosynthesis in Vitis vinifera cv. Pinot noir assessed as reduction in apparent quantum yield of CO2 fixation at 1.2 to 30 mM measured 7 days post compound application; assay type: organism-based; details: in vivo

Compound: N#Cc1c[nH]cc1-c1cccc2c1OC(F)(F)O2 [FLUDIOXONIL]
- Activity [1]: 3.6 micromol/m2/s
- Activity [2]: 37 umol/mol
- Activity [3]: 19.8 umol/mol
- fold change (FC) [4]: 3.5
- Activity [5]: 267 umol/mol
- Ratio [6]: 17.4
- Activity [7]: 3.2 micromol/m2/s
- Activity [8]: Non-toxic
- inhibition at 168 h, 6000 µM [9]: 36%
- Activity [10]: 9.4 micromol/m2/s
- Activity [11]: Toxic
- inhibition at 24 h, 1200 µM [12]: 30%
- Activity [13]: Toxic
- Activity [14]: Non-toxic
- inhibition at 168 h, 6000 µM [15]: 65%
- inhibition at 168 h, 6000 µM [16]: 20%
- Activity [17]: Non-toxic
- Activity [18]: 20%
- Activity [19]: Non-toxic
- Activity [20]: 84.9 umol/mol
- inhibition at 168 h, 30000 µM [21]: 38%
- inhibition at 168 h, 1200 µM [22]: 30%
- Activity [23]: 12.2 micromol/m2/s
- Activity [24]: Non-toxic
- Activity [25]: 46.7 micromol/m2/s
- Activity [26]: 0.8 micromol/m2/s
- inhibition at 168 h, up to 30000 µM [27]: 30%
